Results published in patent US11178869B2, “Microbiocidal quinoline (thio)carboxamide derivatives” (priority 2017, dated 2021).

Legend:
[1] = system: Botryotinia fuckeliana (Botrytis cinerea); test: Botryotinia fuckeliana (Botrytis cinerea) / liquid culture (gray mould); type: cell-based; conditions: 72 h, 200 ppm, compared to untreated control, growth inhibition photometrically 3-4 days after application, read-out: disease control
Fusarium culmorum [2] = test: microbe, parasite or virus in culture; type: cell-based; conditions: read-out: disease control
[3] = system: Glomerella lagenarium (Colletotrichum lagenarium); test: Glomerella lagenarium (Colletotrichum lagenarium) / liquid culture (anthracnose); type: cell-based; conditions: Colletotrichum orbiculare; 200 ppm; compared to untreated control; growth inhibition photometrically 3-4 days after application; read-out: disease control
[4] = system: Monographella nivalis (Microdochium nivale); test: Monographella nivalis (Microdochium nivale) / liquid culture (foot rot cereals); type: cell-based; conditions: 200 ppm, compared to untreated control, growth inhibition photometrically 4-5 days after application, read-out: disease control
[5] = system: Magnaporthe grisea (Pyricularia oryzae); test: microbe, parasite or virus in culture; type: cell-based; conditions: read-out: control of Magnaporthe grisea
Fusarium culmorum [6] = test: whole plant or invertebrate; type: in vivo, Fusarium culmorum on wheat spikelets cv. Monsun; conditions: in Triticum aestivum, 144 h, read-out: control of Fusarium culmorum
Gaeumannomyces graminis = Gaeumannomyces graminis / liquid culture (take-all of cereals); type: cell-based; conditions: compared to untreated control, 4-5 days after application
Sclerotinia sclerotiorum = Sclerotinia sclerotiorum / liquid culture (cottony rot); conditions: read-out: control of Sclerotinia sclerotiorum
Protocol: Sclerotinia sclerotiorum/Liquid Culture (Cottony Rot)
Mycelia fragments of a newly grown liquid culture of the fungus are directly mixed into nutrient broth (Vogels broth). After placing a (DMSO) solution of test compound into a microtiter plate (96-well format) the nutrient broth containing the fungal material is added. The test plates are incubated at 24° C. and the inhibition of growth is determined photometrically 3-4 days after application.

Pyrenophora teres = Pyrenophora teres / barley / leaf disc preventative (net blotch); type: in vivo, Pyrenophora teres on barley leaf segments cv. Hasso; conditions: foliar, barley leaf segments, compared to untreated control, 5-7 days after application

CCC(C)(C#Cc1ccccc1)NC(=O)c1cnc2c(C#N)cccc2c1 (stereo not shown) [Compound F-10, 8-cyano-N-(1-ethyl-1-methyl-3-phenyl-prop-2-ynyl)quinoline-3-carboxamide]
inhibition of growth at 200 ppm [1]: ≥ 80% | inhibition of growth at 200 ppm (Fusarium culmorum [2]): ≥ 80% | inhibition of growth at 200 ppm [3]: ≥ 80% | inhibition of growth at 200 ppm [4]: ≥ 80% | inhibition of growth at 20 ppm [5]: ≥ 80% | pest or weed control at 200 ppm (Fusarium culmorum [6]): ≥ 80% | inhibition of growth at 20 ppm (Gaeumannomyces graminis): ≥ 80% | melting point: 172 to 174 °C | inhibition of growth at 20 ppm (Sclerotinia sclerotiorum): ≥ 80%

CC(C)(C#Cc1ccccc1)NC(=O)c1cnc2c(F)cccc2c1 [Compound F-55, N-(1,1-dimethyl-3-phenyl-prop-2-ynyl)-8-fluoro-quinoline-3-carboxamide]
inhibition of growth at 200 ppm [1]: ≥ 80% | inhibition of growth at 200 ppm (Fusarium culmorum [2]): ≥ 80% | inhibition of growth at 200 ppm [3]: ≥ 80% | inhibition of growth at 200 ppm [4]: ≥ 80% | pest or weed control at 200 ppm (Pyrenophora teres): ≥ 80% | inhibition of growth at 20 ppm (Gaeumannomyces graminis): ≥ 80% | melting point: 151 to 155 °C

CC(C)C[C@@H](C#Cc1ccccc1)NC(=O)c1cnc2c(F)cccc2c1 [Compound G-4, 8-fluoro-N-[(1S)-3-methyl-1-(2-phenylethynyl)butyl]quinoline-3-carboxamide]
inhibition of growth at 200 ppm [1]: ≥ 80% | inhibition of growth at 200 ppm (Fusarium culmorum [2]): ≥ 80% | inhibition of growth at 200 ppm [3]: ≥ 80% | inhibition of growth at 20 ppm [5]: ≥ 80% | pest or weed control at 200 ppm (Fusarium culmorum [6]): ≥ 80% | pest or weed control at 200 ppm (Pyrenophora teres): ≥ 80% | inhibition of growth at 20 ppm (Gaeumannomyces graminis): ≥ 80%

CC(C)C[C@@](C)(C#Cc1ccccc1)NC(=O)c1cnc2c(F)cccc2c1 [Compound G-5, N-[(1S)-1,3-dimethyl-1-(2-phenylethynyl)butyl]-8-fluoro-quinoline-3-carboxamide]
inhibition of growth at 200 ppm [1]: ≥ 80% | inhibition of growth at 200 ppm (Fusarium culmorum [2]): ≥ 80% | inhibition of growth at 200 ppm [3]: ≥ 80% | inhibition of growth at 200 ppm [4]: ≥ 80% | inhibition of growth at 20 ppm [5]: ≥ 80% | inhibition of growth at 20 ppm (Gaeumannomyces graminis): ≥ 80% | melting point: 124 to 127 °C | inhibition of growth at 20 ppm (Sclerotinia sclerotiorum): ≥ 80%

CCC(C)(C#Cc1ccccc1)NC(=O)c1cnc2c(Cl)cccc2c1 (stereo not shown) [Compound F-11, 8-chloro-N-(1-ethyl-1-methyl-3-phenyl-prop-2-ynyl)quinoline-3-carboxamide]
inhibition of growth at 200 ppm [1]: ≥ 80% | inhibition of growth at 200 ppm (Fusarium culmorum [2]): ≥ 80% | inhibition of growth at 200 ppm [3]: ≥ 80% | inhibition of growth at 200 ppm [4]: ≥ 80% | inhibition of growth at 20 ppm [5]: ≥ 80% | pest or weed control at 200 ppm (Fusarium culmorum [6]): ≥ 80% | pest or weed control at 200 ppm (Pyrenophora teres): ≥ 80% | melting point: 161 to 162 °C | inhibition of growth at 20 ppm (Sclerotinia sclerotiorum): ≥ 80%

Cc1ccc(C#CC(C)(C)NC(=O)c2cnc3c(F)cccc3c2)cc1 [Compound F-21, N-[1,1-dimethyl-3-(p-tolyl)prop-2-ynyl]-8-fluoro-quinoline-3-carboxamide]
inhibition of growth at 200 ppm [1]: ≥ 80% | inhibition of growth at 200 ppm (Fusarium culmorum [2]): ≥ 80% | inhibition of growth at 200 ppm [3]: ≥ 80% | inhibition of growth at 200 ppm [4]: ≥ 80% | pest or weed control at 200 ppm (Pyrenophora teres): ≥ 80%

CC(C)C(C#Cc1ccccc1)NC(=O)c1cnc2c(Cl)cccc2c1 (stereo not shown) [Compound F-2, 8-chloro-N-(1-isopropyl-3-phenyl-prop-2-ynyl)quinoline-3-carboxamide]
inhibition of growth at 200 ppm (Fusarium culmorum [2]): ≥ 80% | inhibition of growth at 200 ppm [4]: ≥ 80% | pest or weed control at 200 ppm (Pyrenophora teres): ≥ 80% | melting point: 168 to 170 °C

Cc1ccc(C#CC(C)(C)NC(=O)c2cnc3c(F)cccc3c2)s1 [Compound F-35, N-[1,1-dimethyl-3-(5-methyl-2-thienyl)prop-2-ynyl]-8-fluoro-quinoline-3-carboxamide]
inhibition of growth at 200 ppm [1]: ≥ 80% | inhibition of growth at 200 ppm (Fusarium culmorum [2]): ≥ 80% | inhibition of growth at 200 ppm [4]: ≥ 80% | pest or weed control at 200 ppm (Pyrenophora teres): ≥ 80%

CCC(C)(C#Cc1ccccc1)NC(=O)c1cnc2c(C)cccc2c1 (stereo not shown) [Compound F-9, N-(1-ethyl-1-methyl-3-phenyl-prop-2-ynyl)-8-methyl-quinoline-3-carboxamide]
inhibition of growth at 200 ppm [1]: ≥ 80% | inhibition of growth at 200 ppm (Fusarium culmorum [2]): ≥ 80% | inhibition of growth at 200 ppm [3]: ≥ 80% | inhibition of growth at 200 ppm [4]: ≥ 80% | inhibition of growth at 20 ppm [5]: ≥ 80% | pest or weed control at 200 ppm (Fusarium culmorum [6]): ≥ 80% | melting point: 135 to 137 °C | inhibition of growth at 20 ppm (Sclerotinia sclerotiorum): ≥ 80%

Cc1cccc2cc(C(=O)NC(C#Cc3ccccc3)C(C)C)cnc12 (stereo not shown) [Compound F-1, N-(1-isopropyl-3-phenyl-prop-2-ynyl)-8-methyl-quinoline-3-carboxamide]
inhibition of growth at 200 ppm [1]: ≥ 80% | inhibition of growth at 200 ppm (Fusarium culmorum [2]): ≥ 80% | inhibition of growth at 200 ppm [4]: ≥ 80% | inhibition of growth at 20 ppm [5]: ≥ 80% | pest or weed control at 200 ppm (Pyrenophora teres): ≥ 80%

CC(C)CC(C)(C#Cc1ccccc1)NC(=O)c1cnc2c(F)cccc2c1 (stereo not shown) [Compound F-7, N-[1,3-dimethyl-1-(2-phenylethynyl)butyl]-8-fluoro-quinoline-3-carboxamide]
inhibition of growth at 200 ppm [1]: ≥ 80% | inhibition of growth at 200 ppm (Fusarium culmorum [2]): ≥ 80% | inhibition of growth at 200 ppm [3]: ≥ 80% | inhibition of growth at 200 ppm [4]: ≥ 80% | inhibition of growth at 20 ppm [5]: ≥ 80% | pest or weed control at 200 ppm (Fusarium culmorum [6]): ≥ 80% | inhibition of growth at 20 ppm (Gaeumannomyces graminis): ≥ 80% | melting point: 138 to 141 °C | inhibition of growth at 20 ppm (Sclerotinia sclerotiorum): ≥ 80%

COc1cccc(C#CC(C)(C)NC(=O)c2cnc3c(F)cccc3c2)c1 [Compound F-29, 8-fluoro-N-[3-(3-methoxyphenyl)-1,1-dimethyl-prop-2-ynyl]quinoline-3-carboxamide]
inhibition of growth at 200 ppm [1]: ≥ 80% | inhibition of growth at 200 ppm (Fusarium culmorum [2]): ≥ 80% | inhibition of growth at 200 ppm [3]: ≥ 80% | inhibition of growth at 200 ppm [4]: ≥ 80% | pest or weed control at 200 ppm (Fusarium culmorum [6]): ≥ 80% | pest or weed control at 200 ppm (Pyrenophora teres): ≥ 80%

CCC(C)(C#Cc1ccccc1)NC(=O)c1cnc2c(F)cccc2c1 (stereo not shown) [Compound F-17, N-(1-ethyl-1-methyl-3-phenyl-prop-2-ynyl)-8-fluoro-quinoline-3-carboxamide]
inhibition of growth at 200 ppm [1]: ≥ 80% | inhibition of growth at 200 ppm (Fusarium culmorum [2]): ≥ 80% | inhibition of growth at 200 ppm [3]: ≥ 80% | inhibition of growth at 200 ppm [4]: ≥ 80% | inhibition of growth at 20 ppm [5]: ≥ 80% | pest or weed control at 200 ppm (Fusarium culmorum [6]): ≥ 80% | pest or weed control at 200 ppm (Pyrenophora teres): ≥ 80% | melting point: 129 to 132 °C

CC(C)(C)C(C#Cc1ccccc1)NC(=O)c1cnc2c(F)cccc2c1 (stereo not shown) [Compound F-5, N-(1-tert-butyl-3-phenyl-prop-2-ynyl)-8-fluoro-quinoline-3-carboxamide]
inhibition of growth at 200 ppm [1]: ≥ 80% | inhibition of growth at 200 ppm (Fusarium culmorum [2]): ≥ 80% | inhibition of growth at 200 ppm [3]: ≥ 80% | inhibition of growth at 200 ppm [4]: ≥ 80% | inhibition of growth at 20 ppm [5]: ≥ 80% | inhibition of growth at 20 ppm (Gaeumannomyces graminis): ≥ 80% | melting point: 179 to 181 °C | inhibition of growth at 20 ppm (Sclerotinia sclerotiorum): ≥ 80%
